Measurements: ChEMBL document CHEMBL5038635, “Discovery of Salidroside-Derivated Glycoside Analogues as Novel Angiogenesis Agents to Treat Diabetic Hind Limb Ischemia” (J Med Chem, 2022)
≈ marks a conversion by molar mass, not a printed value. Calls of active or inactive are those of the source. No cut-off for these calls is given here.

Tests used:
[1] = Protein binding in human plasma by balanced dialysis method; type: ADME, cell-free; conditions: read-out: PPB (converted)
[2] = tested on: C2C12; assay: Reversal of hyperglycemia-induced VEGF-A protein level reduction in mouse C2C12 cells measured at 30 uM by Western blot analysis; type: functional, cell-based
[3] = tested on: C2C12; assay: Angiogenic activity in mouse C2C12 cells assessed as accumulation PDGF-BB protein expression at 300 uM by Western blot analysis; type: functional, cell-based
[4] = tested on: C2C12; assay: Angiogenic activity in mouse C2C12 cells assessed as accumulation VEGF-A protein expression at 300 uM by Western blot analysis; type: functional, cell-based
[5] = tested on: C2C12; assay: Angiogenic activity in mouse C2C12 cells assessed as accumulation ANG1 protein expression at 300 uM by Western blot analysis; type: functional, cell-based
[6] = Water solubility of the compound by HPLC analysis
[7] = Octanol/Water partition coefficient, log P of the compound by HPLC-UV analysis
[8] = tested on: C2C12; assay: Angiogenic activity in mouse C2C12 cells assessed as reversal of hyperglycemia-induced reduction in total cell number at 7.5 uM measured after 24 hrs by EdU-incorporation assay; type: functional, cell-based
[9] = tested on: C2C12; assay: Angiogenic activity in mouse C2C12 cells assessed as reversal of hyperglycemia-induced reduction in total cell number at 300 uM measured after 24 to 36 hrs by EdU-incorporation assay; type: functional, cell-based; conditions: time 24-36 hrs
[10] = tested on: C2C12; assay: Induction of proliferation of hyperglycemia-induced mouse C2C12 cell apoptosis assessed as decrease in Annexin V/PI-positive cells at 15 uM pretreated with compound under hyperglycemia condition for 12 hr followed by hypoxia for 24 hrs; type: functional, cell-based; conditions: time 36.0 hrs
[11] = tested on: C2C12; assay: Apoptotic rate in hyperglycemia-treated mouse C2C12 cells assessed as late apoptotic cells at 15 uM by AnnexinV-FITC/PI staining based flow cytometric analysis (reference value: 10.44 %); type: functional
[12] = tested on: C2C12; assay: Apoptotic rate in hyperglycemia-treated mouse C2C12 cells assessed as early apoptotic cells at 15 uM by AnnexinV-FITC/PI staining based flow cytometric analysis (reference value: 7.10 %); type: functional
[13] = tested on: C2C12; assay: Apoptotic rate in hyperglycemia-treated mouse C2C12 cells assessed as necrotic cells at 30 uM by AnnexinV-FITC/PI staining based flow cytometric analysis (reference value: 0.56 %); type: functional
[14] = tested on: C2C12; assay: Apoptotic rate in hyperglycemia-treated mouse C2C12 cells assessed as late apoptotic cells at 30 uM by AnnexinV-FITC/PI staining based flow cytometric analysis (reference value: 10.44 %); type: functional
[15] = tested on: C2C12; assay: Upregulation of PDGF-B protein expression in mouse C2C12 cells at 30 uM by Western blot analysis; type: functional, cell-based
[16] = tested on: C2C12; assay: Upregulation of ANG1 protein expression in mouse C2C12 cells at 30 uM by Western blot analysis; type: functional, cell-based
[17] = tested on: C2C12; assay: Upregulation of HO-1 protein expression in mouse C2C12 cells at 30 uM by Western blot analysis; type: functional, cell-based
[18] = tested on: C2C12; assay: Upregulation of IGF protein expression in mouse C2C12 cells at 30 uM by Western blot analysis; type: functional, cell-based
[19] = tested on: C2C12; assay: Upregulation of EPO protein expression in mouse C2C12 cells at 30 uM by Western blot analysis; type: functional, cell-based
[20] = tested on: C2C12; assay: Upregulation of ANGPTL4 protein expression in mouse C2C12 cells at 30 uM by Western blot analysis; type: functional, cell-based
[21] = tested on: C2C12; assay: Induction of F-actin polymerization in mouse C2C12 cells at 30 uM pretreated with compound for 12 hr followed by hypoxic condition for 24 hrs by phalloidin staining based confocal microscopy; type: functional, cell-based; conditions: time 36.0 hrs
[22] = tested on: C2C12; assay: Angiogenesis activity in mouse C2C12 cells with silenced HIF-1alpha assessed increase in cell migration at 30 uM under hyperglycemic condition incubated for 24 hrs by crystal violet dye based transwell chamber assay; type: functional
[23] = tested on: C2C12; assay: Apoptotic rate in mouse C2C12 cells with silenced HIF-1alpha assessed as necrotic cells at 30 uM by AnnexinV-FITC/PI staining based FACS analysis (reference value: 0.31 %); type: functional
[24] = tested on: HUVEC; assay: Angiogenesis activity in human HUVEC cells assessed as suppression of cell migration using conditioned medium of mouse C2C12 cells treated at 30 uM under hyperglycemic condition for 12 hrs followed by hypoxia for 24 hrs by crystal violet dye based transwell assay; type: functional; conditions: time 36.0 hrs
[25] = tested on: MOVAS-1; assay: Induction proliferation of mouse MOVAS-1 cells assessed as increase in number of EdU-positive cells using conditioned medium of mouse C2C12 cells with silenced HIF-1alpha treated at 30 uM under hyperglycemic condition for 12 hrs followed by hypoxia for 24 hrs in presence of VEGFR inhibitor Ki8751 by EdU-incorporation assay; type: functional, cell-based; conditions: time 36.0 hrs
[26] = Stability in rat plasma assessed as compound remaining at 6.25 to 25 mg/L after 12 hrs by HPLC analysis; type: ADME, cell-free; conditions: at 6.25 to 25 µg/mL, dose 6.25-25 mg/L, read-out: Stability
[27] = Microsomal stability in rat liver microsomes assessed as compound remaining after 30 min by HPLC analysis; type: ADME, Microsome; conditions: read-out: Stability
[28] = Metabolic stability in rat leg muscle homogenates assessed as compound remaining after 30 min by HPLC analysis; type: ADME, tissue-based, muscle of leg; conditions: read-out: Stability
[29] = tested on: Mus musculus; assay: Antidiabetic activity in diabetic HLI C57BL/6 mouse model assessed as increase in blood perfusion recovery at 30 mg/kg administered intramuscularly measured after 21 days; type: functional; conditions: time 21 day
[30] = tested on: Mus musculus; assay: Angiogenic activity in diabetic HLI C57BL/6 mouse model assessed as increase in number of PECAM-1/alpha-SMA double-positive cells at 30 mg/kg, im administered for 21 days followed by surgery by immunofluorescence analysis; type: functional, organism-based; conditions: time 21.0 day
[31] = tested on: Mus musculus; assay: Angiogenic activity in diabetic HLI C57BL/6 mouse model assessed as VEGF-A protein expression at 30 mg/kg, im administered for 21 days followed by surgery by Western blot analysis; type: functional, organism-based; conditions: time 21.0 day
[32] = tested on: Mus musculus; assay: Antidiabetic activity in diabetic HLI C57BL/6 mouse model assessed as suppression of apoptotic rate in skeletal muscle cell in gastrocnemius muscle at 15 to 30 mg/kg, IM administered by TUNEL assay; type: functional, organism-based; conditions: dose 15-30 mg/kg
[33] = Toxicity in diabetic HLI C57BL/6 mouse model assessed as liver pathology at 30 mg/kg, IM administered by HE staining based assay; type: organism-based; conditions: in vivo
[34] = Toxicity in diabetic HLI C57BL/6 mouse model assessed as kidney pathology at 30 mg/kg, IM administered by HE staining based assay; type: organism-based; conditions: in vivo
[35] = tested on: Mus musculus; assay: Angiogenesis activity in nondiabetic HLI C57BL/6 mouse model assessed as as increase in blood perfusion recovery at 30 mg/kg, im administered for 14 days; type: functional, organism-based; conditions: time 14.0 day
[36] = tested on: C2C12; assay: Angiogenesis activity in mouse C2C12 cells assessed as increase in cell migration at 30 uM under hyperglycemic condition for 12 hrs followed by hypoxia for 24 hrs presence of MeOE2 inhibitor by crystal violet dye based transwell assay; type: functional; conditions: time 36.0 hrs
[37] = tested on: C2C12; assay: Down regulation of PHD3 mRNA expression in mouse C2C12 cells at 30 uM by qRT-PCR analysis; type: functional, cell-based
[38] = tested on: C2C12; assay: Effect on PHD1 mRNA expression in mouse C2C12 cells at 30 uM by qRT-PCR analysis; type: functional, cell-based

**Q.** What does the source list for `COc1ccc(Cc2cccc(O[C@@H]3O[C@H](CO)[C@@H](O)[C@H](O)[C@H]3O)c2)cc1`?
**A.** fraction unbound [1]: 0.669; Activity [2]: Active; inhibition [3]: Active; inhibition [4]: Active; inhibition [5]: Active; solubility [6]: 1910 µg/mL (≈ 5.07 mM); logP [7]: 0.971; Activity [8]: Active; Activity [9]: inactive; Activity [10]: Active; Activity [11]: 7.61%; Activity [12]: 3.14%; Activity [13]: 0.35%; Activity [14]: 3.94%; Activity [15]: Active; Activity [16]: Active; Activity [17]: Active; Activity [18]: Active; Activity [19]: Active; Activity [20]: Active; Activity [21]: Active; Activity [22]: inactive; Activity [23]: 0.16%; Activity [24]: Active; Activity [25]: inactive; remaining at 12 h [26]: 98.5%; remaining at 0.5 h [27]: 79.4%; remaining at 0.5 h [28]: 99%; Activity [29]: 80%; Activity [30]: Active; Activity [31]: Active; Activity [32]: Active; Activity [33]: Non-Toxic; Activity [34]: Non-Toxic; Activity [35]: Active; Activity [36]: Active; Activity [37]: Active; Activity [38]: inactive
